Patent US8501238B2, “Anti-infective agents and uses thereof” (priority 2007, dated 2013)

Tests used:
[1] = test system: genotype 1a-H77 subgenomic replicon cell line; experiment: microbe, parasite or virus in culture; format: cell-based, HCV; conditions: Hepatitis C virus, 72 h, read-out: EC50 1a
[2] = test system: genotype 1b-Con1 subgenomic replicon cell line; experiment: microbe, parasite or virus in culture; format: cell-based, HCV; conditions: Hepatitis C virus, 72 h, read-out: EC50 1b
[3] = molecular target: T1, HCV polymerase 1B (Δ21 NS5B) (Hepatitis C virus genotype 1b, UniProt P26663); experiment: biochemical
T1 construct: 20 to 50nM Δ21 NS5B
T1 sequence (P26663 2420-2989, stated change not applied): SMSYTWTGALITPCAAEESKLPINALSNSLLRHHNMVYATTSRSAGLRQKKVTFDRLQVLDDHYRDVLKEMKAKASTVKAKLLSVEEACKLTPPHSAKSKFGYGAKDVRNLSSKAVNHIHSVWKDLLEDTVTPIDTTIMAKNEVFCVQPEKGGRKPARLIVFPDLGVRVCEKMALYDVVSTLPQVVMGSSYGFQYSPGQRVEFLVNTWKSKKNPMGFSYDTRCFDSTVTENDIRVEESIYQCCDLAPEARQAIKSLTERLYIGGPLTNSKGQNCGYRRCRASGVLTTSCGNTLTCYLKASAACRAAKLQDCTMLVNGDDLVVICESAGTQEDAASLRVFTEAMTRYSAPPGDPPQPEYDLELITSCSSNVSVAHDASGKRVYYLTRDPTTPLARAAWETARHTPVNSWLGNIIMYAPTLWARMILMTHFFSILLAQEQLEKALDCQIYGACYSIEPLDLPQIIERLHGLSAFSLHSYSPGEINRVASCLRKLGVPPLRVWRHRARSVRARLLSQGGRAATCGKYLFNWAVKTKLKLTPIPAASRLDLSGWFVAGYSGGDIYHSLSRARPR
Procedure, shortened: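 Inhibitor pre-incubated 15 min at room temperature with Δ21 NS5B (strain BK or H77, 20–50 nM), 60–125 μM GTP, 2 mM MnCl2, pH 7.4. Reaction started with 20 μM CTP, 20 μM ATP, 1 μM 3H-UTP and 5 nM template RNA, run 2–4 h at room temperature. Spermine-precipitated RNA filter-captured and scintillation-counted; IC50 from tight-binding equation fit.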

[4] = molecular target: T2, HCV polymerase 1A (Δ21 NS5B) (Hepatitis C virus genotype 1a, UniProt P27958); experiment: HCV Polymerase Inhibition Assay (1a); format: biochemical
T2 construct: 20 to 50nM Δ21 NS5B
T2 sequence (P27958 2421-2990, stated change not applied): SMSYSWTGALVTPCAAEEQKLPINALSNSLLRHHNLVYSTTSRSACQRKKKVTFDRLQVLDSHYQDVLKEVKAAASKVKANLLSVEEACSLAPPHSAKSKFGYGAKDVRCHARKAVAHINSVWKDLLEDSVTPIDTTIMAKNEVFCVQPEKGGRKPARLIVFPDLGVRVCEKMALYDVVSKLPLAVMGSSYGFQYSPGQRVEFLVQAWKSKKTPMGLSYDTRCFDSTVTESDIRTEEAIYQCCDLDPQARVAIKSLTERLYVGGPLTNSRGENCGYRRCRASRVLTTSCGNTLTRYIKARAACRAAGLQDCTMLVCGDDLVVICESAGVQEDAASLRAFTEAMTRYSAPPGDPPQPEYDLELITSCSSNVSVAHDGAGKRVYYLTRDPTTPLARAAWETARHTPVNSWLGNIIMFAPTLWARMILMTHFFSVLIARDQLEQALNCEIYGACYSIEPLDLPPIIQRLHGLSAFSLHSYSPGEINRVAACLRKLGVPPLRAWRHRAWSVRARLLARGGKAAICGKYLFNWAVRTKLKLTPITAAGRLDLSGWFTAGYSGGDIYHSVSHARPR
Procedure, shortened: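 Δ21 NS5B reactions contained 20 μM CTP, 20 μM ATP, 1 μM ³H-UTP and 5 nM template RNA and ran for 2–4 h at room temperature. RNA was then spermine-precipitated, filter-captured and counted by scintillation. IC50 came from a tight-binding (Morrison) nonlinear fit of retained cpm against inhibitor concentration.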

For CC(C)(C)c1cc(-n2ccc(=O)[nH]c2=O)cc(-c2ccc3cc(NS(C)(=O)=O)ccc3c2)c1Cl [IB-L0-2.14, N-(6-(3-tert-butyl-2-chloro-5-(2,4-dioxo-3,4-dihydropyrimidin-1(2H)-yl)phenyl)naphthalen-2-yl)methanesulfonamide], the EC50 [1] was 100 to 1000 nM, the EC50 [2] was 10 to 100 nM and the IC50 [3] was < 10 nM. The IC50 [4] was < 10 nM and the melting point was > 280 °C.

In the case of CCOc1c(-c2ccc3cc(NS(C)(=O)=O)ccc3c2)cc(-n2ccc(=O)[nH]c2=O)cc1C(C)(C)C [IB-L0-2.23, N-(6-(3-tert-butyl-5-(2,4-dioxo-3,4-dihydropyrimidin-1(2H)-yl)-2-ethoxyphenyl)naphthalen-2-yl)methanesulfonamide], the EC50 [1] is reported as 100 to 1000 nM, the EC50 [2] is reported as 10 to 100 nM and the IC50 [3] is reported as < 10 nM. For the same compound, the IC50 [4] was 10 to 100 nM and the melting point was 196 to 202 °C.

COc1c(-c2ccc3cc(NS(C)(=O)=O)ccc3c2)cc(-n2ccc(=O)[nH]c2=O)cc1C(C)(C)CO [IB-L0-2.54, N-(6-(5-(2,4-dioxo-3,4-dihydropyrimidin-1(2H)-yl)-3-(1-hydroxy-2-methylpropan-2-yl)-2-methoxyphenyl)naphthalen-2-yl)methanesulfonamide] showed an EC50 [1] of 10 to 100 nM, an EC50 [2] of 10 to 100 nM and an IC50 [3] of 10 to 100 nM. For the same compound, the IC50 [4] was < 10 nM and the melting point was 256 to 257 °C.

In the case of COc1c(-c2ccc3cc(NS(C)(=O)=O)ccc3c2)cc(-n2ccc(=O)[nH]c2=O)cc1-c1ccc(C)o1 [IB-L0-2.58, N-(6-(5-(2,4-dioxo-3,4-dihydropyrimidin-1(2H)-yl)-2-methoxy-3-(5-methylfuran-2-yl)phenyl)naphthalen-2-yl)methanesulfonamide], the EC50 [1] is reported as 10 to 100 nM, the EC50 [2] is reported as < 10 nM and the IC50 [3] is reported as 10 to 100 nM. For the same compound, the IC50 [4] was < 10 nM and the melting point was 174 to 178 °C.

Compound COc1c(-c2ccc3cc(NS(C)(=O)=O)ccc3c2)cc(-n2ccc(=O)[nH]c2=O)cc1C(F)(F)C(F)(F)F [IB-L0-2.60, N-(6-(5-(2,4-dioxo-3,4-dihydropyrimidin-1(2H)-yl)-2-methoxy-3-(perfluoroethyl)phenyl)naphthalen-2-yl)methanesulfonamide] has an EC50 [1] of 100 to 1000 nM, an EC50 [2] of 10 to 100 nM and an IC50 [3] of 10 to 100 nM. For the same compound, the IC50 [4] was < 10 nM and the melting point was 162 to 165 °C.

For COc1c(-c2ccoc2)cc(-n2ccc(=O)[nH]c2=O)cc1-c1ccc2cc(NS(C)(=O)=O)ccc2c1 [IB-L0-2.64, N-(6-(5-(2,4-dioxo-3,4-dihydropyrimidin-1(2H)-yl)-3-(furan-3-yl)-2-methoxyphenyl)naphthalen-2-yl)methanesulfonamide], the EC50 [1] was 100 to 1000 nM, the EC50 [2] was < 10 nM and the IC50 [3] was 10 to 100 nM. For the same compound, the IC50 [4] was 10 to 100 nM.

For COCC(C)(C)c1cc(-n2ccc(=O)[nH]c2=O)cc(-c2ccc3cc(NS(C)(=O)=O)ccc3c2)c1OC [IB-L0-2.66, N-(6-(5-(2,4-dioxo-3,4-dihydropyrimidin-1(2H)-yl)-2-methoxy-3-(1-methoxy-2-methylpropan-2-yl)phenyl)naphthalen-2-yl)methanesulfonamide], the EC50 [1] was 100 to 1000 nM, the EC50 [2] was 10 to 100 nM and the IC50 [3] was 10 to 100 nM. It also gave an IC50 [4] of 10 to 100 nM.

With COc1c(-c2ccc3cc(NS(C)(=O)=O)ccc3c2)cc(-n2ccc(=O)[nH]c2=O)cc1S(C)(=O)=O [IB-L0-2.68, N-(6-(5-(2,4-dioxo-3,4-dihydropyrimidin-1(2H)-yl)-2-methoxy-3-(methylsulfonyl)phenyl)naphthalen-2-yl)methanesulfonamide] the EC50 [1] was > 1000 nM, the EC50 [2] was 100 to 1000 nM and the IC50 [3] was 10 to 100 nM. For the same compound, the IC50 [4] was 10 to 100 nM.

Work on COc1c(Br)cc(-n2ccc(=O)[nH]c2=O)cc1-c1ccc2cc(NS(C)(=O)=O)ccc2c1 [IB-L0-2.69, N-(6-(3-bromo-5-(2,4-dioxo-3,4-dihydropyrimidin-1(2H)-yl)-2-methoxyphenyl)naphthalen-2-yl)methanesulfonamide] yielded an EC50 [1] of 100 to 1000 nM, an EC50 [2] of 10 to 100 nM and an IC50 [3] of 10 to 100 nM. For the same compound, the IC50 [4] was 10 to 100 nM.

With COC(=O)C(C)(C)c1cc(-n2ccc(=O)[nH]c2=O)cc(-c2ccc3cc(NS(C)(=O)=O)ccc3c2)c1OC [IB-L0-2.70, methyl 2-(5-(2,4-dioxo-3,4-dihydropyrimidin-1(2H)-yl)-2-methoxy-3-(6-(methylsulfonamido)naphthalen-2-yl)phenyl)-2-methylpropanoate] the EC50 [1] was > 1000 nM, the EC50 [2] was 100 to 1000 nM and the IC50 [3] was 100 to 1000 nM. For the same compound, the IC50 [4] was 10 to 100 nM.

Work on COc1c(-c2ccccc2)cc(-n2ccc(=O)[nH]c2=O)cc1-c1ccc2cc(NS(C)(=O)=O)ccc2c1 [IB-L0-2.71, N-(6-(5-(2,4-dioxo-3,4-dihydropyrimidin-1(2H)-yl)-2-methoxy-biphenyl-3-yl)naphthalen-2-yl)methanesulfonamide] yielded an EC50 [1] of 100 to 1000 nM, an EC50 [2] of 10 to 100 nM and an IC50 [3] of 100 to 1000 nM. For the same compound, the IC50 [4] was 100 to 1000 nM.

In the case of COC(=O)c1cc(-n2ccc(=O)[nH]c2=O)cc(-c2ccc3cc(NS(C)(=O)=O)ccc3c2)c1OC [IB-L0-2.72, methyl 5-(2,4-dioxo-3,4-dihydropyrimidin-1(2H)-yl)-2-methoxy-3-(6-(methylsulfonamido)naphthalen-2-yl)benzoate], the EC50 [1] is reported as > 1000 nM, the EC50 [2] is reported as 100 to 1000 nM and the IC50 [3] is reported as 100 to 1000 nM. The IC50 [4] was 100 to 1000 nM.

For COc1c(-c2ccc3cc(NS(C)(=O)=O)ccc3c2)cc(-n2ccc(=O)[nH]c2=O)cc1-c1ccc(C)s1 [IB-L0-2.73, N-(6-(5-(2,4-dioxo-3,4-dihydropyrimidin-1(2H)-yl)-2-methoxy-3-(5-methylthiophen-2-yl)phenyl)naphthalen-2-yl)methanesulfonamide], the EC50 [1] was 100 to 1000 nM, the EC50 [2] was 100 to 1000 nM and the IC50 [3] was 100 to 1000 nM. For the same compound, the IC50 [4] was 100 to 1000 nM.

In the case of COc1c(-c2cccc(Cl)c2)cc(-n2ccc(=O)[nH]c2=O)cc1-c1ccc2cc(NS(C)(=O)=O)ccc2c1 [IB-L0-2.74, N-(6-(3′-chloro-5-(2,4-dioxo-3,4-dihydropyrimidin-1(2H)-yl)-2-methoxybiphenyl-3-yl)naphthalen-2-yl)methanesulfonamide], the EC50 [1] is reported as > 1000 nM, the EC50 [2] is reported as 100 to 1000 nM and the IC50 [3] is reported as 100 to 1000 nM. For the same compound, the IC50 [4] was 100 to 1000 nM.

In the case of COc1c(NS(C)(=O)=O)cc(-n2ccc(=O)[nH]c2=O)cc1-c1ccc2cc(NS(C)(=O)=O)ccc2c1 [IB-L0-2.75, N-(5-(2,4-dioxo-3,4-dihydropyrimidin-1(2H)-yl)-2-methoxy-3-(6-(methylsulfonamido)naphthalen-2-yl)phenyl)methanesulfonamide], the EC50 [1] is reported as > 1000 nM, the EC50 [2] is reported as > 1000 nM and the IC50 [3] is reported as > 1000 nM. It also gave an IC50 [4] of 100 to 1000 nM.

With COc1c(-c2ccc3cc(NS(C)(=O)=O)ccc3c2)cc(-n2ccc(=O)[nH]c2=O)cc1C(C)(C)C(=O)O [IB-L0-2.77, 2-(5-(2,4-dioxo-3,4-dihydropyrimidin-1(2H)-yl)-2-methoxy-3-(6-(methylsulfonamido)naphthalen-2-yl)phenyl)-2-methylpropanoic acid] the IC50 [3] was > 1000 nM, the IC50 [4] was > 1000 nM and the melting point was > 300 °C.

For COc1c(C#C[Si](C)(C)C)cc(-n2ccc(=O)[nH]c2=O)cc1-c1ccc2cc(NS(C)(=O)=O)ccc2c1 [IB-L0-2.78, N-(6-(5-(2,4-dioxo-3,4-dihydropyrimidin-1(2H)-yl)-2-methoxy-3-((trimethylsilyl)ethynyl)phenyl)naphthalen-2-yl)methanesulfonamide], the IC50 [3] was > 1000 nM, the IC50 [4] was > 1000 nM and the melting point was 175 to 178 °C.

For COc1c(N2Cc3ccc(NS(C)(=O)=O)cc3C2)cc(-n2ccc(=O)[nH]c2=O)cc1C(C)(C)C [IB-L0-2.79, N-(2-(3-tert-butyl-5-(2,4-dioxo-3,4-dihydropyrimidin-1(2H)-yl)-2-methoxyphenyl)isoindolin-5-yl)methanesulfonamide], the EC50 [1] was 100 to 1000 nM, the EC50 [2] was 100 to 1000 nM and the IC50 [3] was 10 to 100 nM. For the same compound, the IC50 [4] was 10 to 100 nM.
